In PMC12114598, “Repositioning FDA-Approved Sulfonamide-Based Drugs as Potential Carbonic Anhydrase Inhibitors in Trypanosoma cruzi: Virtual Screening and In Vitro Studies” (Pharmaceuticals, 2025):

Experiments:
[1] = test system: T. cruzi epimastigotes, NINOA strain; assay: Trypanocidal activity, epimastigotes in vitro, NINOA strain; type: cell-based; settings: Trypanosoma cruzi; 48 h, resazurin; ± SD; read-out: Epimastigote (In Vitro) NINOA IC50
Text: (§1) The selected drugs were purchased from Sigma-Aldrich without further purification. For the in vitro evaluation, the methodology proposed by Domínguez-Diaz et al. 2021 [53] against epimastigotes of T. cruzi strains NINOA (MHOM/MX/1994/NINOA) and A1 for the evaluation of candidate compounds was used. Both strains were maintained in liver-infusion tryptose (LIT) medium supplemented with 10% fetal bovine serum (FBS) and 0.1% penicillin–streptomycin. These strains were maintained by transferring 1 × 10^6 parasites/mL to fresh medium once a week. […] All compounds were initially prepared at a concentration of 10 mg/mL using dimethyl sulfoxide (DMSO) as a diluent. Serial dilutions were then performed with LIT medium until concentrations of 100 to 0.46 μg/mL of each compound were obtained. Amounts of 1 × 10^6 T. cruzi epimastigotes were grown in each well and incubated for 48 h at 28 °C in a final volume of 200 μL. DMSO was included as a negative control, and reference drugs as positive controls. At the end of the incubation period, 20 μL of resazurin solution (2.5 mM) was added to each well and incubated for 3 h. All assays were performed in triplicate, and the IC50 value was determined by probit analysis.

[2] = test system: T. cruzi epimastigotes, A1 strain; assay: Trypanocidal activity, epimastigotes in vitro, A1 strain; type: cell-based; settings: Trypanosoma cruzi; 48 h, resazurin; ± SD; read-out: Epimastigote (In Vitro) A1 IC50
Text: as §1

[3] = test system: T. cruzi blood trypomastigotes, NINOA strain; assay: Trypanocidal activity, blood trypomastigotes ex vivo, NINOA strain; type: cell-based; settings: Trypanosoma cruzi; 24 h at 4 °C; ± SD; read-out: Trypomastigote (Ex Vivo) NINOA IC50
Experimental: (§2) Ex vivo evaluation of the trypanocidal activity of the tested compounds was conducted according to previously established protocols. Blood was collected via intracardiac puncture from mice infected with T. cruzi NINOA and A1 strains and diluted in phosphate-buffered saline (PBS, pH 7.2) to achieve a final concentration of 2 × 10^6 blood trypomastigotes/mL. […] The plates were incubated at 4 °C for 24 h. […] Following incubation, live parasites were quantified using a Neubauer chamber, and the half-maximal inhibitory concentration (IC50) was determined by probit analysis. All assays were performed in three independent experiments, each conducted in triplicate.

[4] = test system: T. cruzi blood trypomastigotes, A1 strain; assay: Trypanocidal activity, blood trypomastigotes ex vivo, A1 strain; type: cell-based; settings: Trypanosoma cruzi; 24 h at 4 °C; ± SD; read-out: Trypomastigote (Ex Vivo) A1 IC50
Experimental: as §2

[5] = test system: T. cruzi amastigotes, NINOA strain; assay: Amastigote assay, NINOA strain; type: cell-based; settings: Trypanosoma cruzi; in J774.2 macrophages, 48 h, MTT; ± SD; read-out: Amastigote (Ex Vivo) NINOA IC50
Experimental: (§3) Amastigote susceptibility to reference drugs was evaluated in vitro. […] The lysis solution was then replaced with Schneider’s medium followed by incubation at 28 °C for another 4 to 5 days to allow the transformation of viable amastigotes and their subsequent proliferation. Then, MTT colorimetric assays were performed. Finally, the half maximal inhibitory concentration (IC50) was determined by probit analysis. All studies were approved by the Institutional Committee for Handling and Animal Care of the Facultad de Ciencias Quimicas de la Universidad Autonoma “Benito Juarez” de Oaxaca (Register FCQ-CIP-0209243, Approved 23 September 2024) and were carried out according to Mexican guidance (NOM-062-ZOO-1999).

[6] = test system: T. cruzi amastigotes, A1 strain; assay: Amastigote assay, A1 strain; type: cell-based; settings: Trypanosoma cruzi; in J774.2 macrophages, 48 h, MTT; ± SD; read-out: Amastigote (Ex Vivo) A1 IC50
Experimental: as §3

[7] = in vitro; type: cell-based; settings: mouse
Experimental: Cytotoxicity assays were performed using the methodology proposed by Domínguez-Diaz et al. on a mouse macrophage cell line (J774.2). Cells were cultured in LIT medium supplemented with 10% SFB, penicillin (100 U μg/mL), and streptomycin (100 U μg/mL) at 37 °C in a 5% CO2 atmosphere. The culture medium was replaced at 2–3 day intervals. To evaluate the cytotoxicity of the compounds, 50,000 cells/well were plated in a 96-well plate and allowed to adhere for 24 h at 37 °C. Subsequently, the compounds were added at concentrations of 0.8 to 100 μg/mL to obtain a final volume of 200 μL and incubated for […] with 5% CO2. DMSO 0.1% (maximum concentration used) was included as a negative control and the control drugs as positive ones. The metabolic activity of the cell was determined following the MTT method, the % cell viability was calculated, and the median lethal concentration (LC50) was determined by Probit analysis. Analyses were performed in triplicate, and the Selectivity Index (SI) for the three parasitic stages in the NINOA and A1 strains (CC50/IC50) was calculated.

[8] = target: T1, hCA I (Homo sapiens, UniProt P00915); assay: CO2 hydrase stopped-flow assay, hCA I; type: biochemical; settings: mean of three assays, errors ±5–10%
T1 construct: made in house
Experimental: (§4) An Applied Photophysics stopped-flow instrument was used for assaying the CA-catalysed CO2 hydration activity. […] The uncatalyzed rates were determined in the same manner and subtracted from the total observed rates. Stock solutions of inhibitor (0.1 mM) were prepared in distilled/deionized water, and dilutions up to 0.01 nM were performed thereafter with the assay buffer. Inhibitor and enzyme solutions were preincubated together for 15 min at room temperature before assaying to allow for the formation of the E–I complex. The inhibition constants were obtained by nonlinear least-squares methods using PRISM 3 and the Cheng–Prusoff equation and represent the mean from at least three different determinations. […] All hCA isoforms were recombinant ones obtained in-house, as reported earlier.

[9] = target: T2, hCA II (Homo sapiens, UniProt P00918); assay: CO2 hydrase stopped-flow assay, hCA II; type: biochemical; settings: mean of three assays, errors ±5–10%
T2 construct: made in house
Experimental: as §4

[10] = target: α-TcCA (Trypanosoma cruzi, UniProt Q4CVY4); assay: CO2 hydrase stopped-flow assay, α-TcCA
Experimental: An Applied Photophysics stopped-flow instrument was used for assaying the CA-catalysed CO2 hydration activity [31]. […] The uncatalyzed rates were determined in the same manner and subtracted from the total observed rates. Stock solutions of inhibitor (0.1 mM) were prepared in distilled/deionized water, and dilutions up to 0.01 nM were performed thereafter with the assay buffer. Inhibitor and enzyme solutions were preincubated together for 15 min at room temperature before assaying to allow for the formation of the E–I complex. The inhibition constants were obtained by nonlinear least-squares methods using PRISM 3 and the Cheng–Prusoff equation and represent the mean from at least three different determinations.

[11] = test system: T. cruzi epimastigotes; parameters: method as in PMID 32560043; settings: in vitro epimastigote model; cited from earlier work

Chain of α-TcCA (Q4CVY4 entry or part of it): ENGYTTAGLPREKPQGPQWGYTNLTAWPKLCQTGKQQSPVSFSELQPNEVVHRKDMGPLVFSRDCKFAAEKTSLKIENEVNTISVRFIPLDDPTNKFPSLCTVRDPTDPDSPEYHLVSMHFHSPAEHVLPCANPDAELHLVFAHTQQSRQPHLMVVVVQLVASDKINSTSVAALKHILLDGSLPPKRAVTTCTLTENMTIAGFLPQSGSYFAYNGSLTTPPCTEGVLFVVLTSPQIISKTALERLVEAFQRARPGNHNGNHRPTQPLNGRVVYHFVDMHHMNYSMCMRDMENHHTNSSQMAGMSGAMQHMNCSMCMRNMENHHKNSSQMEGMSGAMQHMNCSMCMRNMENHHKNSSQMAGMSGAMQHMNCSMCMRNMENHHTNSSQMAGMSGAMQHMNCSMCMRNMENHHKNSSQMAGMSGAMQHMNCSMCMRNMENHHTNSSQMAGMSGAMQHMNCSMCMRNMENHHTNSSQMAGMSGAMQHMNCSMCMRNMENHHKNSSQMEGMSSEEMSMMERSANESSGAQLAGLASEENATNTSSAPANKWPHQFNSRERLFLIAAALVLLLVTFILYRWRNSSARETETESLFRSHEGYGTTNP
T1 sequence (P00915 whole entry): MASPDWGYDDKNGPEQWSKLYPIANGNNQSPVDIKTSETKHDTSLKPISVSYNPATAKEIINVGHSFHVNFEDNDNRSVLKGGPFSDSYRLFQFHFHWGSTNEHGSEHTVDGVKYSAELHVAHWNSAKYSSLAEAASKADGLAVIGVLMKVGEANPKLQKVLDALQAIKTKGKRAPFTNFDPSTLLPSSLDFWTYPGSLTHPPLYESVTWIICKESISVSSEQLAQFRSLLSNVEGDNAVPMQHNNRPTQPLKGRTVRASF

Compound `CC(=O)c1ccc(S(=O)(=O)NC(=O)NC2CCCCC2)cc1` [Ace, acetohexamide] has an IC50 [1] of 6.5 ± 2.1 µM, an IC50 [2] of 52.9 ± 2.7 µM and an IC50 [3] of 46.5 ± 0.1 µM. It also gave an IC50 [4] of over 200 µM, an IC50 [5] of 46 ± 0.6 µM and an IC50 [6] of over 200 µM. For the same compound, the CC50 at 48 h [7] was over 200 µM, the Ki [8] was 17.3 µM and the Ki [9] was 2.9 µM. The Ki [10] was 5.6 µM.
In the case of `Cc1cnc(C(=O)NCCc2ccc(S(=O)(=O)NC(=O)NC3CCCCC3)cc2)cn1` [glipizide], the IC50 [11] is given as 13.4 ± 6 µM.
For `Cc1ccc(S(=O)(=O)NC(=O)NN2CC3CCCC3C2)cc1` (stereo not shown) [Glic, gliclazide], the IC50 [1] was over 200 µM, the IC50 [2] was 10.7 ± 1.5 µM and the IC50 [3] was 89.4 ± 0.1 µM. For the same compound, the IC50 [4] was over 200 µM, the IC50 [5] was over 200 µM and the IC50 [6] was 12.3 ± 0.01 µM. For the same compound, the CC50 at 48 h [7] was over 200 µM, the Ki [8] was over 100 µM and the Ki [10] was over 100 µM.
For `CC1CS(=O)(=O)CCN1/N=C/c1ccc([N+](=O)[O-])o1` (stereo not shown) [Nfx, Nifurtimox], the IC50 [1] was 7.1 ± 0.1 µM, the IC50 [2] was 39.1 ± 0.07 µM and the IC50 [3] was 156 ± 0.1 µM. It also gave an IC50 [4] of 118.2 ± 0.02 µM, an IC50 [5] of 70.5 ± 0.6 µM and an IC50 [6] of 54.8 ± 0.01 µM.
Work on `O=C(Cn1ccnc1[N+](=O)[O-])NCc1ccccc1` [Bzn, Benznidazole] yielded an IC50 [1] of 30.3 ± 0.03 µM, an IC50 [2] of 19.3 ± 0.08 µM and an IC50 [3] of 167.1 ± 0.03 µM. For the same compound, the IC50 [4] was 145.3 ± 0.2 µM.
With `CC(=O)Nc1nnc(S(N)(=O)=O)s1` [Aaz, acetazolamide] the CC50 at 48 h [7] was 12.6 ± 4.7 µM.
`CCC1=C(C)CN(C(=O)NCCc2ccc(S(=O)(=O)NC(=O)N[C@H]3CC[C@H](C)CC3)cc2)C1=O` [Glim, glimepiride] gave an IC50 [1] of 70.2 ± 3.2 µM, an IC50 [2] of 37.6 ± 1.5 µM and an IC50 [3] of over 200 µM. For the same compound, the IC50 [4] was over 200 µM, the IC50 [5] was over 200 µM and the IC50 [6] was 50.26 ± 0.01 µM. For the same compound, the CC50 at 48 h [7] was 14.2 ± 2.3 µM, the Ki [8] was over 100 µM and the Ki [9] was 19.9 µM. The Ki [10] was 35.7 µM.
Work on `CCCCNC(=O)NS(=O)(=O)c1ccc(C)cc1` [Tol, tolbutamide] yielded an IC50 [1] of 8.5 ± 1.4 µM, an IC50 [2] of over 200 µM and an IC50 [3] of 9.8 ± 0.1 µM. The IC50 [4] was 97.7 ± 0.1 µM, the IC50 [5] was 148.7 ± 0.01 µM and the IC50 [6] was 44.5 ± 0.01 µM. The CC50 at 48 h [7] was over 200 µM, the Ki [8] was over 100 µM and the Ki [9] was over 100 µM. For the same compound, the Ki [10] was over 100 µM and the “KI TcCA” value ([10]; mean of three assays, errors ±5–10%) was “did not exhibit inhibitory activity”.
